From the NIST ThermoML archive (doi:10.1007/s10765-007-0223-x)

Test: xn = mol fraction of the nth substance listed
Details: 101 kPa, Liquid; for speed of sound: Single path-length method

COC(C)(C)C [2-methoxy-2-methylpropane] + c1ccccc1
Details | mass density [kg/m3] | speed of sound [m/s]
305.65 K, x1 = 0.052 | 856.117 | –
305.65 K, x1 = 0.111 | 846.045 | –
305.65 K, x1 = 0.202 | 831.061 | –
305.65 K, x1 = 0.303 | 815.461 | –
305.65 K, x1 = 0.397 | 801.707 | –
305.65 K, x1 = 0.5 | 787.314 | –
305.65 K, x1 = 0.596 | 774.518 | –
305.65 K, x1 = 0.698 | 761.485 | –
305.65 K, x1 = 0.791 | 750.234 | 1047.1
305.65 K, x1 = 0.902 | 737.34 | 1021.7
305.65 K, x1 = 0.95 | 731.914 | 1010.9
305.65 K, x1 = 1 | 726.444 | 1002.4
308.15 K, x1 = 0.052 | 853.44 | 1234.9
308.15 K, x1 = 0.111 | 843.388 | 1216.5
308.15 K, x1 = 0.202 | 828.417 | 1188.9
308.15 K, x1 = 0.303 | 812.827 | 1160
308.15 K, x1 = 0.397 | 799.075 | 1134.1
308.15 K, x1 = 0.5 | 784.683 | 1106.9
308.15 K, x1 = 0.596 | 771.88 | 1082.4
308.15 K, x1 = 0.698 | 758.841 | 1057.2
308.15 K, x1 = 0.791 | 747.582 | 1035.7
308.15 K, x1 = 0.902 | 734.673 | 1010.3
308.15 K, x1 = 0.95 | 729.241 | 999.43
308.15 K, x1 = 1 | 723.763 | 990.99
310.65 K, x1 = 0.052 | 850.759 | 1223.5
310.65 K, x1 = 0.111 | 840.726 | 1205.2
310.65 K, x1 = 0.202 | 825.767 | 1177.5
310.65 K, x1 = 0.303 | 810.187 | 1148.8
310.65 K, x1 = 0.397 | 796.438 | 1122.8
310.65 K, x1 = 0.5 | 782.044 | 1095.5
310.65 K, x1 = 0.596 | 769.234 | 1071.2
310.65 K, x1 = 0.698 | 756.187 | 1046
310.65 K, x1 = 0.791 | 744.918 | 1024.3
310.65 K, x1 = 0.902 | 731.995 | 998.9
310.65 K, x1 = 0.95 | 726.556 | 988.05
310.65 K, x1 = 1 | 721.069 | 979.62
313.15 K, x1 = 0.052 | 848.07 | 1212
313.15 K, x1 = 0.111 | 838.056 | 1193.8
313.15 K, x1 = 0.202 | 823.111 | 1166.3
313.15 K, x1 = 0.303 | 807.533 | 1137.4
313.15 K, x1 = 0.397 | 793.792 | 1111.5
313.15 K, x1 = 0.5 | 779.391 | 1084.2
313.15 K, x1 = 0.596 | 766.575 | 1059.8
313.15 K, x1 = 0.698 | 753.517 | 1034.6
313.15 K, x1 = 0.791 | 742.24 | 1013
313.15 K, x1 = 0.902 | 729.301 | 987.61
313.15 K, x1 = 0.95 | 723.852 | 976.7
313.15 K, x1 = 1 | 718.357 | 968.16
315.65 K, x1 = 0.052 | 845.378 | 1200.6
315.65 K, x1 = 0.111 | 835.381 | 1182.5
315.65 K, x1 = 0.202 | 820.447 | 1155
315.65 K, x1 = 0.303 | 804.877 | 1126.2
315.65 K, x1 = 0.397 | 791.135 | 1100.3
315.65 K, x1 = 0.5 | 776.733 | 1073
315.65 K, x1 = 0.596 | 763.908 | 1048.6
315.65 K, x1 = 0.698 | 750.84 | 1023.3
315.65 K, x1 = 0.791 | 739.55 | 1001.7
315.65 K, x1 = 0.902 | 726.593 | 976.23
315.65 K, x1 = 0.95 | 721.138 | 965.31
315.65 K, x1 = 1 | 715.636 | 956.8
318.15 K, x1 = 0.052 | 842.684 | 1189.4
318.15 K, x1 = 0.111 | 832.703 | 1171.3
318.15 K, x1 = 0.202 | 817.778 | 1143.8
318.15 K, x1 = 0.303 | 802.213 | 1115
318.15 K, x1 = 0.397 | 788.472 | 1089.2
318.15 K, x1 = 0.5 | 774.062 | 1061.8
318.15 K, x1 = 0.596 | 761.226 | 1037.4
318.15 K, x1 = 0.698 | 748.147 | 1012.1
318.15 K, x1 = 0.791 | 736.847 | 990.48
318.15 K, x1 = 0.902 | 723.87 | 964.92
320.65 K, x1 = 0.052 | 840.006 | 1178.4
320.65 K, x1 = 0.111 | 830.019 | 1160.1
320.65 K, x1 = 0.202 | 815.102 | 1132.6
320.65 K, x1 = 0.303 | 799.541 | 1103.9
320.65 K, x1 = 0.397 | 785.8 | 1078.1
320.65 K, x1 = 0.5 | 771.341 | 1050.4
320.65 K, x1 = 0.596 | 758.536 | 1026.2
320.65 K, x1 = 0.698 | 745.444 | 1001
320.65 K, x1 = 0.791 | 734.13 | 979.25
320.65 K, x1 = 0.902 | 721.133 | 953.72
323.15 K, x1 = 0.052 | 837.364 | 1168
323.15 K, x1 = 0.111 | 827.342 | 1149.2
323.15 K, x1 = 0.202 | 812.432 | 1121.7
323.15 K, x1 = 0.303 | 796.876 | 1093
323.15 K, x1 = 0.397 | 783.138 | 1067.2
323.15 K, x1 = 0.5 | 768.725 | 1040
323.15 K, x1 = 0.596 | 755.841 | 1015.2
323.15 K, x1 = 0.698 | 742.756 | 990.11
323.15 K, x1 = 0.791 | 731.411 | 968.17
323.15 K, x1 = 0.902 | 718.4 | 942.69
323.15 K, x1 = 0.95 | 712.917 | 931.73
323.15 K, x1 = 1 | 707.381 | 922.97
